From patent US20260210856A1, “CONJUGATED OLIGOELECTROLYTES WITH BORON-DIPYRROMETHENE CORES AND METHODS THEREOF” (National University of Singapore, priority 2022, published 2026)

Experiments:
[1] = FLIM of stained GUVs with varying compositions; type: physicochemical; conditions: 1 μM
Text: FLIM is a time-resolved method used to obtain information on the emission decay of a fluorophore in different cellular environments. Being independent of parameters such as local dye concentration, absorption profile, and excitation intensity, FLIM is sensitive to changes in the fluorophore itself relative to intensity-based measurements. Accordingly, we first used GUV model systems with a well-defined composition to measure the lifetime of the probe in environments of known lipid packing. For this purpose, use used compositions of, in order of increased membrane tension, DOPC, DOPC with cholesterol (Chol), sphyngomyelin (SM) and SM with Chol. This series of GUVs allows us to examine to what extent τw of intercalated COE-BYPhOC4 is responsive to different levels of membrane tension.
GUVs were thus first stained with 1 μM COE-BYPhOC4 and were imaged via conventional FLIM. […] All the lifetimes measured are predominantly described by a mono-exponential fit. […]

[2] = Photophysical properties in PBS and in SUVs (POPC:POPG 85:15); type: physicochemical
Text: The photophysical properties of the COE-BY series were studied in phosphate-buffered saline (PBS) and within model lipid bilayers. Small unilamellar vesicles (SUVs) composed of 1-palmitoyl-2-oleoyl-glycero-3-phosphocholine (POPC) and 1-palmitoyl-2-oleoyl-sn-glycero-3-phospho-(1′-rac-glycerol) sodium (POPG) (85:15, mol/mol) were used to simulate the lipid environment in cell membranes. The absorption spectra in PBS for all compounds feature a main peak at ~550 nm, reflecting the presence of the BODIPY subunit (FIG. 9A). One also observes a 5-10 nm red-shift of lowest energy absorption peak with increasing electron-withdrawing strength of the phenyl substituents.
Upon inserting into lipid bilayers, the fluorescence intensity increases over 27-fold for COE-BYPhMe, 30-fold for COE-BYPhOC4, 35-fold for COE-BYPhCN and 40-fold for COE-BYPhNO, relative to the values measured in PBS (FIG. 1c and FIG. S5). The increase in emission intensity reflects a transition to a more rigid and hydrophobic environment. Quantum yields increase to 32% for COE-BYPhMe, 60% for COE-BYPhOC4, 13% for COE-BYPhCN, and 10% for COE-BYPhNO in SUVs from 1% for COE-BYPhMe, 3% for COE-BYPhOC4, and 0.5% for COE-BYPhCN in PBS. The QY of COE-BYPhNO in PBS cannot be accurately determined by using a conventional fluorometer due to its weak fluorescence. The maximum emission wavelengths are redshifted from 587/589 nm (COE-BYPhMe/OC4) to 605/611 nm (COE-BYPhCN/NO) as a result of the decreased HOMO-LUMO energy gaps. […] Furthermore, the fluorescence spectra of COE-BYs intercalated within SUVs show a narrow band at wavelengths between 587 nm and 611 nm, with a full width half maximum (FWHM) linewidth of 52-68 nm (Table 1).

[3] = Two-photon absorption cross section; type: physicochemical; conditions: intercalated into SUVs
Text: Dynamic biological processes in live cells often take place at a rapid time scale, necessitating rapid image acquisition. For 2P-FLIM applications, this is especially relevant since a significant photon count is required to ensure accurate decay statistics and lifetime values. Two-photon imaging provides access to the NIR-II window for excitation (1000-1700 nm), minimizing photodamage and eliminating out of focus noise. As such, dye brightness plays a key role in enabling high-quality imaging. We thus evaluated their two-photon absorption cross-section of the COE-BY series. […] These properties will become relevant when determining the utility of COE-BYPhOC4 to image the endocytosis pathway and different response of living cells.

[4] = Analyte viscosity sensing: fluorescence lifetime in the presence of different analytes; type: physicochemical; conditions: 0.5 μM
Procedure: Solutions of bovine serum albumin (BSA), high density lipoprotein (HDL), Liposomes of POPC:POPG 85:15 (SUVs) and Liposomes of POPC:POPG:Cholesterol 42.5:7.5:50 (SUV CHOL) were prepared at final concentrations of 1 mg/mL in PBS. COE-BYs were prepared at 1 μM in PBS. 150 μL of analyte and 150 μL of COE-BYs were mixed and incubated for 1 hour at 37C. Fluorescent emission profiles were measured with excitation at 545 nm.

HeLa cells = experiment: Membrane tension imaging during endocytosis, 2P-FLIM; type: cell-based
Procedure: We thus stained HeLa cells with COE-BYPhOC4 for different lengths of time and captured 2P-FLIM images of the cell state at specific intervals. For these studies, we correlated the time-dependent colocalization experiments with 2P-FLIM data to link τw with the identity of the vesicles. […] Time dependent colocalization with Rab5a allowed us a means of assigning the identities of the vesicles. At 2 hours, the blue and green vesicles in FLIM image were identified as early endosomes. Upon increasing staining time to 4 h, all COE-BYPhOC4 entered the cells with a further increase in τw, leading to a main yellow color. […] As previously analyzed from the colocalization images in FIG. 12, all the COEs resided exclusively within late endosomes at this point in time. […] This observation is potentially reflective of the different domains in endosomes.

A549 cells = experiment: Confocal microscopy of stained cells; type: cell-based
Procedure: A549 cells were stained for 5 minutes with 0.75 μM COE-BYPhMe (red channel) before imaging and Hoechst 33342 (blue channel).
Our next objective was to study the cellular distribution of COE-BYPhOC4 series at different time points by conventional confocal microscopy.

τw ([1]; DOPC GUVs): 1.6±0.2 ns | τw ([1]; SM/Chol vesicles): 2.8±0.3 ns | FWHM ([2]; fluorescence spectra, intercalated within SUVs): 56 nm | ΦF in PBS ([2]; in PBS): 3% | λabs ([2]; in PBS): 540 nm | λem in PBS ([2]; in PBS): 602 nm | ΦF in SUVs ([2]; in SUVs): 60% | λem in SUVs ([2]; in SUVs): 589 nm | fluorescence intensity increase upon inserting into lipid bilayers ([2]; relative to the values measured in PBS): > 30 fold | two photon absorption cross section area [3]: 486 GM | Lifetime ([4]; analyte HDL 0.5 mg/mL): 4.02 ± 0.01 ns | Lifetime ([4]; analyte PBS): 0.56 ± 0.01 ns | Lifetime ([4]; analyte SUV (POPC:POPG 85:15) 0.5 mg/mL): 1.99 ± 0.01 ns | Lifetime ([4]; analyte SUV CHOL (POPC:POPG:Cholesterol 42.5:7.5:50) 0.5 mg/mL): 2.18 ± 0.01 ns
SMILES: CCCCOc1ccc(C2=C3C(C)=C(c4ccc(/C=C/c5cc(OCCCCCC[N+](C)(C)C)c(OCCCCCC[N+](C)(C)C)c(OCCCCCC[N+](C)(C)C)c5)cc4)C(C)=[N+]3[B-](F)(F)n3c(C)c(-c4ccc(/C=C/c5cc(OCCCCCC[N+](C)(C)C)c(OCCCCCC[N+](C)(C)C)c(OCCCCCC[N+](C)(C)C)c5)cc4)c(C)c32)cc1.[I-].[I-].[I-].[I-].[I-].[I-] [COE-BYPhOC4]
τw (HeLa cells; 8 to 24 h, red-orange vesicles): 2.7-3.0 ns | τw (HeLa cells; 0.5 h, plasma membranes): ≈ 1.5 ns | τw (HeLa cells; 0.5 h, regions beginning to be internalized): ≈ 1.0 ns | τw (HeLa cells; vesicles taken up earlier (green)): 2.0-2.4 ns | staining pattern (A549 cells; A549, 1 μM, 10 minutes): strong fluorescence signals were observed on the plasma membranes | location of emission (A549 cells; incubation for 4 hours): predominantly intracellular emission
